# Measurements taken from PMC5618429, “Kempopeptin C, a Novel Marine-Derived Serine Protease Inhibitor Targeting Invasive Breast Cancer” (Marine Drugs, 2017).
# Key:
# Assay type in all cases: biochemical
# [1] = molecular target: T1, recombinant human matriptase (Homo sapiens, UniProt Q9Y5Y6); experiment: In vitro cleavage of desmoglein-2 by matriptase (SDS-PAGE, silver stain, densitometry); details: 3 h; for Inhibition of in vitro cleavage of Dsg-2 by matriptase: enzyme to substrate ratio 1:5, pH 9.0, 37 °C, 10‒0.01 µM inhibitor, qualitative
# T1 construct: purchased R&D Systems 3946-SE-010
# T1 sequence (Q9Y5Y6 615-855 limits assumed): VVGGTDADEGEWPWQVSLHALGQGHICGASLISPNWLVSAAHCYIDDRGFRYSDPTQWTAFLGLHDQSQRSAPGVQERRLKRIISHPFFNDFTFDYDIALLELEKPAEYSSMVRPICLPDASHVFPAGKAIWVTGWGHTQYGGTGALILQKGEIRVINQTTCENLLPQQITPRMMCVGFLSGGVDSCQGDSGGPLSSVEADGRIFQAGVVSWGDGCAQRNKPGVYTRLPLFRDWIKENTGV
# Description: Figure 4 The effect of kempopeptin C (3) on the in vitro cleavage of CDCP1 and desmoglein-2 (Dsg-2) by matriptase. (A,B) Incubation of recombinant human CDCP1 with recombinant human matriptase (enzyme to substrate ratio 1:5) in 50 mM Tris, 50 mM NaCl, 0.01% Tween 20 (pH 9.0) at 37 °C for 30 min and 2 h in the presence and absence of different concentrations (10‒0.01 µM) of kempopeptin C (3). (C) Incubation of recombinant human Dsg-2 with recombinant human matriptase (enzyme to substrate ratio 1:5) in 50 mM Tris, 50 mM NaCl, 0.01% tween 20 (pH 9.0) at 37 °C for 3 h in the presence and absence of different concentrations (10‒0.01 µM) of kempopeptin C (3). Fragments were separated on SDS-PAGE under reducing conditions and silver stained. (D) Densitometric analysis of Dsg-2 bands in the SDS-PAGE in […].
# Among the earliest events in cancer metastasis is the loss of intracellular adhesion. Desmosomes are adhesive molecules localized at the cell membrane acting as an anchor for intermediate filaments in addition to being adhesive intracellular junctions. Desmogleins (Dsg 1‒4) and desmocollins (Dsc 1‒3), comprising the core of the desmosomal adhesive complex, are glycoproteins and members of the cadherin superfamily of proteins. Desmogleins have been reported to be aberrantly expressed in several cancers and substrates of several proteases. Dsg-2 is known to be a substrate of kallikrein 7 (KLK7) and harbors a cleavage site for matriptase. We therefore investigated the cleavage of Dsg-2 by matriptase in vitro and the ability of kempopeptin C (3) to inhibit or reduce this cleavage. Matriptase and Dsg-2 were incubated for 3 h at 37 °C in assay buffer (final molar ratio 1:5) in the presence of different concentrations of kempopeptin C (3) or solvent control (Figure 4C). The resulting protein fragments were separated by SDS-PAGE and subjected to silver staining. […] The incomplete cleavage of Dsg-2 by matriptase might be due to the relative affinity of kempopeptin C (3) to matriptase, such that it can block the cleavage of some low affinity bands, but have no effects on others. […]
# [2] = molecular target: T2, 20S proteasome (trypsin-like activity) (Homo sapiens, UniProt Q99436); experiment: Proteasome Glo Trypsin-Like Activity Assay; details: 10 and 1 µM, in vitro
# T2 construct: purchased Enzo Life Sciences
# Description: The inhibition of proteasomes was assessed using the Proteasome Glo Trypsin-Like Activity Assay from Promega according to the manufacturer’s instructions. Briefly, in white 96-well plates, kempopeptin C (3) (10 and 1 µM final concentration) was incubated at room temperature with 0.1 µg 20S proteasome (Enzo Life Sciences, Farmingdale, NY, USA) for 10 min to allow enzyme inhibitor interactions. Following the incubation period, the detection reagent containing Z-LRR-aminoluciferin substrate was added. The plate was gently mixed at 400 rpm for 30 s and then incubated at room temperature for 10 min. The luminescence signal was then measured using the EnVision plate reader (PerkinElmer, Waltham, MA, USA). Epoxomicin was used as a positive control.
# Effect of kempopeptin C on the trypsin- like activity of
# Kempopeptin C (10 µM) Kempopeptin C (1 µM) Epoxomicin (5 µM)
# Figure S2. Effect of kempopeptin C (3) on the proteasome activity in vitro assessed using proteasome Glo trypsin- like
# activity assay (Promega).
# [3] = molecular target: T3, plasmin from human plasma (Homo sapiens, UniProt P00747); experiment: Plasmin inhibition assay; details: mean ± SD, n = 3; 30-min preincubation; read-out: IC50 against plasmin
# T3 construct: purchased Sigma P1867; host or cells: human plasma
# Description: The plasmin inhibition assay was carried out by incubating 5 µL of […] plasmin from human plasma (P1867, Sigma, St. Louis, MO, USA) with 1 µL of different concentrations of inhibitors (2 and 3; half log dilutions prepared in DMSO) or the solvent control in the presence of 89 µL assay buffer (0.05 M Tris-HCl, pH 8.9). After a 30-min incubation time, 5 µL of 1.7 mM substrate solution (N-p-Tosyl-D-Gly-Pro-Lys-4-nitroanilide acetate salt; prepared in assay buffer) were added to each well. The reaction was monitored by measuring the absorbance at 405 nm every 30 s for 30 min using the SpectraMax M5 plate reader (Molecular Devices).
# T3 sequence (P00747 581-810 limits assumed): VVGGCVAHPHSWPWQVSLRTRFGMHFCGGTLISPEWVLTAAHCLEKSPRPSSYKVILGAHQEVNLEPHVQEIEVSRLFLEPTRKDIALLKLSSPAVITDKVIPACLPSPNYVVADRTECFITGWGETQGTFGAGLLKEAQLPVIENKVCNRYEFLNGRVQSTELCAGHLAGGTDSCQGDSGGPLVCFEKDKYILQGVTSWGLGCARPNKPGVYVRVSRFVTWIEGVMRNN
# T3 sequence (P00747 98-580 partner limits assumed): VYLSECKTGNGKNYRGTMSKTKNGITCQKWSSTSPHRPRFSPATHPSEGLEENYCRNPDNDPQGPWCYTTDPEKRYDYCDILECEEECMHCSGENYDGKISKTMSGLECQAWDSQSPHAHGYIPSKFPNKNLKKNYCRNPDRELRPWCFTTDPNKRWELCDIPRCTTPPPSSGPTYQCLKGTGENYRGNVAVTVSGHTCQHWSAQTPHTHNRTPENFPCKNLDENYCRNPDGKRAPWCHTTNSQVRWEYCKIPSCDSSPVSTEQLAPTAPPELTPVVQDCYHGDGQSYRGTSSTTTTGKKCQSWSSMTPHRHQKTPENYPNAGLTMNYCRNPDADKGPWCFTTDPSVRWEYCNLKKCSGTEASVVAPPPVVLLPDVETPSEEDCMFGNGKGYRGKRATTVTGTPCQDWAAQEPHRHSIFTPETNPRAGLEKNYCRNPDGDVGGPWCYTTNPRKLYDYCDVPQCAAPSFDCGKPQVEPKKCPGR
smiles,measurement,setting,value
"CCCC(=O)NC(C(=O)NC1C(=O)NC(CCCCN)C(=O)NC2CCC(O)N(C2=O)C(C(C)CC)C(=O)N(C)C(Cc2ccc(OC)c(Cl)c2)C(=O)NC(C(C)C)C(=O)OC1C)C(C)C (centres unmarked) [Kempopeptin C, kempopeptin C]",Densitometry of full-length Dsg-2 (Band 1),"[1]; 37 °C, compared to lower concentrations of the inhibitor","higher intensity of the full-length Dsg-2 (Band 1) in the presence of 10, 1 and 0.1 µM"
same,Inhibition of in vitro cleavage of Dsg-2 by matriptase,[1],inhibit the cleavage
same,Inhibition of in vitro cleavage of Dsg-2 by matriptase,[1]; listed as Kempopeptin C (3),slight dose-dependent reduction in the cleavage of Dsg-2
same,Effect on trypsin-like activity of proteasomes,[2],did not inhibit the trypsin-like activity of proteasomes
same,IC50,[3],360 ± 90 nM
